Source: patent publication US4691046A, “Butanedioic acid mono [(2-dimethylamino] ethyl ester)succinate” (Institut Organicheskoi Khimii Ordena Lenina I Ordena …, priority 1986, dated 1987)

How the values were obtained:
[1] = Blood glucose and organ glycogen upon predetermined (2.5 h) cold treatment (adaptation experiment); type: in vivo, mice; settings: adaptation + preparation immediately after adaptation, 80 mg/kg (invention) or 64 mg/kg (ester), 2.5 h at -14° C.
Protocol: (§1) To elucidate the effect of the compound according to the present invention on the adaptation phenomenon, experiments on male mice with a body mass of 18-20 g were carried out in conformity with the Le Blanc procedure according to which the mice were placed into a cold chamber (at -17° C.) for 10 minutes ever hour over the period of 9-10 hours. After one day the maximum lifespan of the mice at -17° C. was assessed along with the content of glucose in blood and of glycogen in organs upon a predetermined cold treatment (2.5 hours a -14° C.). The compound according to the present invention and butanedioic acid mono[(2-dimethylamino)-ethyl ester] (in doses of 80 and 64 mg/kg respectively) were introduced immediately after a series of short-time cold effects. In a number of experiments the compound according to the present invention was administered 1 hour prior to the testing (2.5 h) cold effect.

[2] = system: Glucose-6-phosphatedehydrogenase; test: Activity of glucose-6-phosphatedehydrogenase in myocardium upon low-temperature treatment; type: in vivo, mice; settings: 2.5 hours at -14° C.; 80 mg/kg (invention) or 64 mg/kg (ester); control 57.3 ± 1.3
Protocol: (§2) The preparations were administered one hour before the standard low-temperature treatment (-14° C.) in doses of 80 mg/kg of the compound according to the present invention and 64 mg/kg of the prior art compound-butanedioic acid mono[(2-dimethylamino)-ethyl ester].

[3] = Stresso-protective activity, motion stress in slowly rotating drum for 48 hours; type: in vivo, rats; settings: 48 h motion stress
Protocol: In evaluation of the stresso-protective activity of the compound according to the present invention as a model use was made of a procedure of depriving rats of sleep, meals and water in a slowly rotating drum (at the speed of 0.2 km/h).
The experiments were carried out on 42 nondescript male rats. In parallel experiments the antistress activity of butanedioic acid mono[(2-dimethylamino)ethyl ester] was studied; as the reference prepartion use was made of the prior art tranquilizer--diazepam which was used in the experiments for this very indication.
4 groups of animals were tested in parallel. Groups I and II were placed for 48 hours into a slowly rotating drum, groups III and IV were under normal conditions and were deprived only of meals and water. The compound according to the present invention and butanedioic acid mono[(2-dimethylamino)ethyl ester] were administered intraperitoneally in the dose of 10 mg/kg four times (2 times a day) in the volume of 2.5 ml/kg under the conditions of motion stress (Group I of the animals) and under normal conditions (Group III of animals). The control animals--Group II (active control) and Group IV (passive control) were given a physiological solution. The efficiency of the compound according to the present invention, of butanedioic acid mono[(2-dimethylamino)ethyl ester] and of diazepam was estimated on the basis of a set of characteristics showing the functional activity of the central nervous system, physical fitness and development of basic symptoms of the stress-syndrome.
The residence of control rats in a slowly-rotating drum over 48 hours results in a noticeable deterioration of all the studied characteristics, especially those of higher nervous activity (learning) and development of stress-syndrome. The state of control animals was characterized by lowering of the overall behavioural activity as determined by the "open-field" test (37±15%) with reference to the passive control level, by a reduction in the speed of development of a conventional avoiding response in an aqueous labyrinth (58±15%), by an increase in the number of mistakes during the teaching time (175±25%), lowering of the ultimate physical endurance as determined by the swimming-with-load test (the load is equal to 10% by mass of the body (70±17%), adrenal hypertrophy (146±16%), thymus atrophy (49±9%) and formation of ulcers on the stomach mucous membrane (5.25±1.0%).

Isocitratedehydrogenase = test: Activity of isocitratedehydrogenase in myocardium upon low-temperature treatment; type: in vivo, mice; settings: 2.5 hours at -14° C.; 80 mg/kg (invention) or 64 mg/kg (ester); control 49.5 ± 1.2
Protocol: as §2

Pyruvatedehydrogenase = test: Activity of pyruvatedehydrogenase in myocardium upon low-temperature treatment; type: in vivo, mice; settings: 2.5 hours at -14° C.; 80 mg/kg (invention) or 64 mg/kg (ester); control 56.6 ± 1.1
Protocol: as §2

[4] = system: NAD-Ph--H2 --dehydrogenase; test: Activity of NAD-Ph-H2-dehydrogenase in myocardium upon low-temperature treatment; type: in vivo, mice; settings: 2.5 hours at -14° C.; 80 mg/kg (invention) or 64 mg/kg (ester); control 72.1 ± 1.4
Protocol: as §2

NADH2 --dehydrogenase = test: Activity of NADH2-dehydrogenase in myocardium upon low-temperature treatment; type: in vivo, mice; settings: 2.5 hours at -14° C.; 80 mg/kg (invention) or 64 mg/kg (ester); control 69.8 ± 1.5
Protocol: as §2

Succinatedehydrogenase = test: Activity of succinatedehydrogenase in myocardium upon low-temperature treatment; type: in vivo, mice; settings: 2.5 hours at -14° C.; 80 mg/kg (invention) or 64 mg/kg (ester); control 72.3 ± 1.6
Protocol: as §2

Glutamatedehydrogenase = test: Activity of glutamatedehydrogenase in myocardium upon low-temperature treatment; type: in vivo, mice; settings: 2.5 hours at -14° C.; 80 mg/kg (invention) or 64 mg/kg (ester); control 68.8 ± 1.5
Protocol: as §2

[5] = Biochemical substrates in mice upon preset (2.5 hours) low-temperature treatment; settings: 2.5 hours at -14° C., 1 hour after 80 mg/kg (invention) or 64 mg/kg (ester)
Protocol: as §2

[6] = Survival of mice on acute cooling; type: in vivo; settings: i.p. 1 hour before, 80 mg/kg (invention), 64 mg/kg (ester), 17 mg/kg (sodium succinate)
Protocol: The activity of the compound according to the present invention was studied in experiments on animals. The effectivemess of the compound according to the present invention was studied for resistance against an acute cold effect in comparison with conventional preparations such as butanedioic acid mono[(2-dimethylamino)ethyl ester] and sodium succinate.
The experiments were carried out on male mice (tetrahybdrids) with a body mass of 18-20 g which were placed into a cold chamber at a temperature of -15t to -17° C. in separate plastic cages slightly limiting their activity. […] The preparations were administered intraperiotoneally 1 hour before the cold effect the control animals were administered with a physiological solution.

[7] = Maximum duration of mice lifespan upon testing cold treatment (Le Blanc adaptation procedure); type: in vivo; settings: with preliminary adaptation; 80 mg/kg (invention) or 64 mg/kg (ester); adaptation alone 6.0 ± 0.3
Protocol: as §1

CN(C)CCOC(=O)CCC(=O)O [Butanedioic acid mono[(2-dimethylamino)ethyl ester]] [reference compound]
Glycogen, heart ([1]; control 1.7 ± 0.2): 2.4 ± 0.2 mg/g
Glycogen, liver ([1]; control 6.7 ± 0.4): 10.2 ± 2.7 mg/g
Blood glucose ([1]; control 37 ± 6): 75 ± 4 mg. %
Activity of glucose-6-phosphatedehydrogenase in myocardium [2]: 60.2 ± 1.4 relative units
stresso-protective activity compared with the compound of the invention ([3]; in words): far less pronounced
Weight coefficient of thymus ([3]; 10 mg/kg i.p. four times (invention, ester), control 0.95 ± 0.18, 10 mg/kg): 1.08 g/kg of the initial body mass
Weight coefficient of adrenal glands ([3]; 10 mg/kg i.p. four times (invention, ester), control 1.246 ± 0.028, 10 mg/kg): 1.42 g/kg of the initial body mass
Number of attempts till reaching the learning criterion (water labyrinth) ([3]; 10 mg/kg i.p. four times (invention, ester), control 4.75 ± 0.5, 10 mg/kg): 4.10
Number of ulcers on the stomach mucous membrane ([3]; 10 mg/kg i.p. four times (invention, ester), control 5.25 ± 1.0, 10 mg/kg): 4.2
Duration of swimming ([3]; 10 mg/kg i.p. four times (invention, ester), control 244 ± 26, 10 mg/kg): 325 s
Activity of isocitratedehydrogenase in myocardium (Isocitratedehydrogenase): 58.2 ± 1.4 relative units
Activity of pyruvatedehydrogenase in myocardium (Pyruvatedehydrogenase): 62.6 ± 3.5 relative units
Activity of NAD-Ph-H2-dehydrogenase in myocardium [4]: 76.4 ± 2.7 relative units
Activity of NADH2-dehydrogenase in myocardium (NADH2 --dehydrogenase): 70.8 ± 2.7 relative units
Activity of succinatedehydrogenase in myocardium (Succinatedehydrogenase): 75.6 ± 2.4 relative units
Activity of glutamatedehydrogenase in myocardium (Glutamatedehydrogenase): 72.4 ± 0.6 relative units
Liver glycogen ([5]; control 8.1 ± 0.6, intact 35.2 ± 4.5): 6.7 ± 0.8 mg/kg
Blood glucose ([5]; control 42 ± 4, intact 79 ± 3): 64 ± 2 mg. %
Creatine phosphate ([5]; myocardium, control 1.2 ± 0.08, intact 3.7 ± 0.3): 1.4 ± 0.04 μm/g
Survival, %, 1 hour ([6]; 1 hour of cold at -15 to -17° C.): 100%
Survival, %, 2 hours ([6]; 2 hours of cold at -15 to -17° C.): 90%
Survival, %, 3 hours ([6]; 3 hours of cold at -15 to -17° C.): 70%
Survival, %, 4 hours ([6]; 4 hours of cold at -15 to -17° C.): 50%
Survival, %, 5 hours ([6]; 5 hours of cold at -15 to -17° C.): 20%
Survival, %, 6 hours ([6]; 6 hours of cold at -15 to -17° C.): 10%
Lifespan in hours (at -17° C.), preliminary adaptation + preparation [7]: 6.2 ± 0.4 h
